The source of these data is publication PMC2952696 (Bioorganic & medicinal chemistry letters, 2010).

Common to all, as to format: biochemical
The target in one experiment is rat nNOS (Rattus norvegicus, UniProt P29476). Kind of experiment: NOS inhibition assay, rat nNOS. The conditions noted are these: for selectivity n/e: rat nNOS over bovine eNOS; for selectivity n/i: rat nNOS over murine iNOS.
The target in another experiment is human nNOS (Homo sapiens, UniProt P29475). The experiment in a line: NOS inhibition assay, human nNOS. The conditions noted are these: human nNOS vs rat nNOS.
In another experiment the target is bovine eNOS (Bos taurus, UniProt P29473). The experiment in a line: NOS inhibition assay, bovine eNOS. The conditions noted are these: 2a vs 1.

As to `Nc1cccc(C[C@@H]2CNC[C@@H]2OCCNCCc2cccc(F)c2)n1` [Compound 2a], the “drop of selectivity for rat nNOS over bovine eNOS compared to 1” value on rat nNOS (2a vs 1) was 2.3 fold. For the same compound, the “impaired potency for rat nNOS compared to 1” value at rat nNOS (2a vs 1, removal of 4-methyl group) was 7 fold. On rat nNOS, the selectivity n/e is 1,200 and the selectivity n/i is reported as 200. In addition, the “drop of selectivity (Ki-human/Ki-rat) compared to 1” value at human nNOS was 1.2 fold. In addition, the “difference in eNOS potency compared to 1” value at bovine eNOS turned out to be 3 fold.
For `Nc1cccc(C[C@H]2CNC[C@H]2OCCNCCc2cccc(F)c2)n1` [Compound 2b], the “lower potency for rat nNOS compared to 2a” value on rat nNOS (2b vs 2a) is 4 fold. Also, on rat nNOS, the selectivity n/e was found to be 270 and the selectivity n/i amounted to 60.
At rat nNOS, `N=C1CCCC(C[C@@H]2CNC[C@@H]2OCCNCCc2cccc(F)c2)N1` (stereo partly drawn) [Compound 3] yielded a selectivity n/e of 530 and a selectivity n/i of 200. The “drop of selectivity (Ki-human/Ki-rat) compared to 1” value on human nNOS was 1.6 fold.
